Results taken from paper PMC11459619, “Evaluating the amoeba thioredoxin reductase selenoprotein as potential drug target for treatment of Acanthamoeba infections” (International Journal for Parasitology: Drugs and Drug …, 2024).
Read-outs that look alike come from different tables or passages of the source.

What was measured:
AcTrxR-L [1] = target: T1, AcTrxR-L (Acanthamoeba castellanii, UniProt L8HG59); test: DTNB reduction at 412 nm (250 μM NADPH, 1 mM DTNB, TE buffer) after preincubation of 50 nM AcTrxR-L with inhibitor, 250 μM NADPH and 0.01 mg/ml BSA for 30 min (10 min in results), diluted 5-fold, without desalting.; type: biochemical; settings: n = 2; read-out: IC50 (μM), Not desalted
T1 construct: gene ACA1_153040; recombinant selenoprotein from E. coli C321.ΔA (pABC2a, UAG as Sec codon, SECIS element); N-terminal His-SUMO removed with ULP1; homodimer with one FAD per subunit
T1 sequence (L8HG59 1-526): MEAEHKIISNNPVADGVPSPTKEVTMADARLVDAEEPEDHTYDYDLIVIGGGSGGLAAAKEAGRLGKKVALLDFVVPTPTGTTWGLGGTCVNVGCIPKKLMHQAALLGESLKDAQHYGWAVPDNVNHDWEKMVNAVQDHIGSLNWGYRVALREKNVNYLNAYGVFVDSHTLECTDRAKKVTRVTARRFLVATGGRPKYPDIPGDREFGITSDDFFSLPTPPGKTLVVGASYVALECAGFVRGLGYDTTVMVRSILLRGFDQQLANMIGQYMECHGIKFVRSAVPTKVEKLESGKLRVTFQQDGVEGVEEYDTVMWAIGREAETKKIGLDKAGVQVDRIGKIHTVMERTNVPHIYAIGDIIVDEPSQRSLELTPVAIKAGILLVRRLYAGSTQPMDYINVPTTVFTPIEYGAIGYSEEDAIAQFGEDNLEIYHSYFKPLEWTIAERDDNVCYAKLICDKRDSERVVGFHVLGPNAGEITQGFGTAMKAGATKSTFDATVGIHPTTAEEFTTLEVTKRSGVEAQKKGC
Experimental: (§1) Then, the reaction was diluted 5-fold and 200 μl was desalted using Zeba™ Spin Desalting Columns and Plates, 40K MWCO (Thermo Scientific, 87767), whereupon 100 μl of the reactions, either desalted or not desalted, were transferred to each well of a 96 well plate. Subsequently, 250 μM NADPH and 1 mM DTNB were added to each well. The TNB^− formation at A412 nm was followed by a spectrophotometer and experiments were carried out in duplicates. The IC50 values were determined based on the nonlinear regression (curve fit), dose-response-inhibitor equation, log (inhibitor) vs. normalized response (variable slope) using GraphPad Prism.

AcTrxR-L [2] = target: T1, AcTrxR-L; test: DTNB reduction at 412 nm (250 μM NADPH, 1 mM DTNB, TE buffer) after preincubation of 50 nM AcTrxR-L with inhibitor, 250 μM NADPH and 0.01 mg/ml BSA for 30 min (10 min in results), diluted 5-fold and desalted to remove free inhibitor.; type: biochemical; settings: n = 2
Experimental: as §1

[3] = tested on: human corneal epithelial cells (HCECs); test: Cytotoxicity test on human corneal epithelial cells (CellTiter 96 AQueous One); type: cell-based; settings: HCEC; for TD50 24 h: 24 h of treatment; for TD50 48 h: 48 h of treatment; for TD50 72 h: 72 h of treatment
Experimental: Cytotoxicity of the compounds towards human corneal epithelial cells (HCECs) (Innoprot, ref. P10871) was determined ([Loufouma Mbouaka et al., 2023]) in 96-well microplates. The HCECs (1 × 10^4 cells/well) were grown in 100 μL of corneal epithelial cell medium (CEpiCM) (Innoprot, ref. P60131) supplemented with 1% of corneal epithelial cell growth supplement (CEpiCGS), 2% of fetal bovine serum (FBS) and 1% antibiotic mix: 10,000 U penicillin, 10 mg streptomycin and 25 μg amphotericin B per milliliter. After overnight incubation, cytotoxicity was evaluated adding 20 μL of CellTiter 96® AQueous One Solution Reagent (Promega, Madison, WI, USA). After 1 h of incubation at 37 °C, the absorbance at 490 nm was read using a spectrophotometer (Tecan, Spark 10M, Switzerland).
The TD50 values were calculated using the same method as the IC50 values with GraphPad Prism. Moreover, the therapeutic index was determined as the ratio of TD50 to IC50 ([Muller and Milton, 2012]).

Schistosoma mansoni = tested on: Schistosoma mansoni; set-up: method as in Kuntz et al., 2007; settings: treatment of infected mice; ref Kuntz et al., 2007; cited from earlier work
[4] = tested on: different strains of Acanthamoeba; settings: ref Feng et al. (2020); read-out: IC50 against Acanthamoeba trophozoites; cited from earlier work
[5] = tested on: Acanthamoeba strain Neff trophozoites; test: In vitro amoebicide assay, trypan blue direct counting; type: cell-based, Acanthamoeba castellanii
Experimental: Acanthamoeba castellanii strain Neff (ATCC® 30010™) genotype T4 was used for all experiments. The amoebae were grown in peptone yeast extract-glucose medium (PYG) in 75 cm^2 tissue culture flasks at 25 °C with weekly medium changes as described previously ([Köhsler et al., 2022]).
The amoebicidal activity was assessed by direct counting, using trypan blue ([Martín-Pérez et al., 2021]) and assayed in sterile 96-well microplates. Diverse drug concentrations (0–20 μM) were prepared via serial dilutions in DMSO, keeping total DMSO at 5% in the control well and in the drug solution wells ranging 5–3%. Amoebae from log-phase cultures (5 × 10^4 trophozoites/well) were inoculated into the microplates and the trophozoites were resuspended in PYG medium. Drug assays contained 100 μL of trophozoites solution, 90 μL of PYG media and 10 μL of the drug solution per well. The growth control (positive control) included 100 μL of trophozoites solution, 90 μL of PYG medium and 10 μL of DMSO. Each drug concentration and control were investigated in triplicates and each experiment was repeated in two independent setups. The plates were incubated at 25 °C during 4, 24, 48 and 72 h. Samples were placed in a Bürker-Türk counting chamber. The IC50 was calculated using GraphPad Prism, as explained previously.

AcTrxR-S = tested on: AcTrxR-S; set-up: method as in Leitsch et al., 2021; settings: ref Leitsch et al., 2021; read-out: IC50 enzymatic activity of AcTrxR-S; cited from earlier work
AcTrxR-L [6] = test: Inhibition of AcTrxR-L, direct DTNB reduction assay; type: biochemical, Acanthamoeba castellanii; settings: for IC50: DTNB reduction; for Reversibility of AcTrxR-L inhibition after desalting: removal of compound from solution by desalting
Experimental: as §1, with “The reaction consisted of incubating 50 nM AcTrxR-L with 0.5–10 μM of auranofin, TRi-1 or TRi- 2, or 1% v/v DMSO, 250 μM NADPH and 0.01 mg/ml BSA in TE buffer for 30 min ([Fata et al., 2022]). Then,” for “Then,”

AcTrxR-L [7] = test: Direct DTNB reduction assay; type: biochemical, Acanthamoeba castellanii
Experimental: Unless stated otherwise, all enzyme assays for AcTrxR-L were based upon well-established selenoprotein TrxR assays, as outlined earlier ([Arnér, 2018]). Kinetic parameters of AcTrxR-L were determined with different biochemical assays in triplicates in cuvettes as previously described ([Fata et al., 2022]). First, the specific activity of AcTrxR-L was calculated from its NADPH-dependent DTNB reduction. The reaction mixture contained 10 nM AcTrxR-L, 250 μM NADPH, and 2.5 mM DTNB in TE buffer (50 mM Tris and 2 mM EDTA, pH 7.5), and the reduction of DTNB was monitored by measuring the formation of the TNB^− anion at A412 nm on a spectrophotometer. Each DTNB is reduced into 2 molecules of TNB^− with extinction coefficient of 13,600 M^−1cm^−1 at 412 nm and the specific activity of the enzyme was calculated as Unit per mg (U/mg), with 1 U (μmol/min) defined as conversion of 1 μmol of DTNB substrate per minute.
Apparent Michaelis-Menten parameters were in all cases calculated based on the nonlinear fit of the velocity vs substrate concentration curves to the Michaelis-Menten equation by using GraphPad Prism.

HCEC = tested on: HCEC; set-up: method as in Martín-Pérez et al., 2019; settings: ref Martín-Pérez et al., 2019; read-out: IC50 against HCEC; cited from earlier work
[8] = substrate: O=C(O)c1cc(SSc2ccc([N+](=O)[O-])c(C(=O)O)c2)ccc1[N+](=O)[O-]; test: purified protein, by the assay type; settings: pH 7.5
[9] = 48 h of treatment, read-out: IC50 48 h
[10] = 72 h of treatment, read-out: IC50 72 h
[11] = after removal of the inhibitors by desalting, read-out: IC50 Desalted
[12] = in presence of the inhibitors, 50 nM AcTrxR-L, read-out: IC50 Not desalted

CC[PH](CC)(CC)[Au][S][C@@H]1O[C@H](COC(C)=O)[C@@H](OC(C)=O)[C@H](OC(C)=O)[C@H]1OC(C)=O [Auranofin, auranofin (Ridaura), gold-based compound]
IC50 (AcTrxR-L [1]): 0.32 ± 0.39 µM
IC50 (AcTrxR-L [2]): 0.32 ± 0.55 µM

CC(=O)OC[C@H]1O[C@@H]([S-])[C@H](OC(C)=O)[C@@H](OC(C)=O)[C@@H]1OC(C)=O.CCP(CC)CC.[Au+] [Auranofin, auranofin]
TD50 24 h [3]: 2.79 ± 0.076 µM
TD50 48 h [3]: 1.18 ± 0.103 µM
TD50 72 h [3]: 0.97 ± 0.045 µM
Reduction of worm burden (Schistosoma mansoni): 60%
IC50 [4]: 5790 nM
IC50 [5, 9]: 21100 ± 11000 nM
IC50 [5, 10]: 5640 ± 1350 nM
IC50 (AcTrxR-S): 216 nM
IC50 (AcTrxR-L [6]; [11]): 320 ± 550 nM
IC50 (AcTrxR-L [6]; [12]): 320 ± 390 nM
Reversibility of AcTrxR-L inhibition after desalting (AcTrxR-L [6]): irreversibly inhibit the enzyme

O=C(O)c1cc(SSc2ccc([N+](=O)[O-])c(C(=O)O)c2)ccc1[N+](=O)[O-] [DTNB]
Km (AcTrxR-L [7]): 384 ± 63.7 µM
Vmax (AcTrxR-L [7]): 238.1 ± 19.01 µmol/min/mg
kcat (AcTrxR-L [7]): 79.37 s⁻¹

COc1ccc([N+](=O)[O-])c(S(=O)(=O)c2ccc(Cl)cc2)n1 [TRi-1, thioredoxin reductase inhibitor -1]
IC50 (AcTrxR-L [1]): 0.36 ± 0.07 µM
IC50 (AcTrxR-L [2]): 0.37 ± 0.11 µM

COc1ccc([N+](=O)[O-])c(S(=O)(=O)c2ccc(Cl)cc2)n1 [TRi-1]
TD50 24 h [3]: 8.84 ± 0.044 µM
TD50 48 h [3]: 8.40 ± 0.168 µM
TD50 72 h [3]: 8.40 ± 0.003 µM
IC50 ([5]; 24 h of treatment, read-out: IC50 24 h): 17700 ± 1640 nM
IC50 [5, 9]: 7650 ± 1710 nM
IC50 [5, 10]: 4290 ± 862 nM
IC50 (AcTrxR-L [6]; [11]): 370 ± 110 nM
IC50 (AcTrxR-L [6]; [12]): 360 ± 70 nM
Reversibility of AcTrxR-L inhibition after desalting (AcTrxR-L [6]): irreversibly inhibit the enzyme

[H]/N=C(\N/C(=N/[H])NCCCCCCNC(=N)NC(=N)Nc1ccc(Cl)cc1)Nc1ccc(Cl)cc1 [chlorhexidine]
IC50 (HCEC): 1580 nM

thioredoxin reductase inhibitor -2 [TRi-2]
IC50 (AcTrxR-L [1]): > 10 µM
IC50 (AcTrxR-L [2]): > 10 µM

B1: AcTrxR-L (Acanthamoeba castellanii str. Neff) (protein)
chain: MEAEHKIISNNPVADGVPSPTKEVTMADARLVDAEEPEDHTYDYDLIVIGGGSGGLAAAKEAGRLGKKVALLDFVVPTPTGTTWGLGGTCVNVGCIPKKLMHQAALLGESLKDAQHYGWAVPDNVNHDWEKMVNAVQDHIGSLNWGYRVALREKNVNYLNAYGVFVDSHTLECTDRAKKVTRVTARRFLVATGGRPKYPDIPGDREFGITSDDFFSLPTPPGKTLVVGASYVALECAGFVRGLGYDTTVMVRSILLRGFDQQLANMIGQYMECHGIKFVRSAVPTKVEKLESGKLRVTFQQDGVEGVEEYDTVMWAIGREAETKKIGLDKAGVQVDRIGKIHTVMERTNVPHIYAIGDIIVDEPSQRSLELTPVAIKAGILLVRRLYAGSTQPMDYINVPTTVFTPIEYGAIGYSEEDAIAQFGEDNLEIYHSYFKPLEWTIAERDDNVCYAKLICDKRDSERVVGFHVLGPNAGEITQGFGTAMKAGATKSTFDATVGIHPTTAEEFTTLEVTKRSGVEAQKKGC
Km [8]: 384.1 ± 63.74 µM
Vmax [8]: 238 µmol/min/mg
kcat [8]: 79.4 s⁻¹
kcat/Km [8]: 200000 M⁻¹ s⁻¹
